We go through one molecule from US7812142B2, “Pentose derivatives as anti-hyperglycemic drugs” (Yissum Research Development Company of the Hebrew …, priority 2002, dated 2010).

The test system of series [1] is glucose transporter. The series can be described thus: Non-radioactive fluorimetric dGlc-6-P uptake assay with 10 mM dGlc. The format is cell-based. The settings on record: 10 mM dGlc in the uptake assay. As to the method:
Since the standard hexose transport assay utilizes 0.1 mM dGlc in the presence of tracer amount of [^3H] dGlc, the inventors asked whether the results shown above were limited to this particular assay condition. Therefore, experiments were repeated with 10 mM dGlc in the uptake assay. […] The uptake of hexose under these assay conditions was also linear up to 25 min.

The nature of series [2]: Half-life of D-xylose measured in rats. The settings on record: rat, in vivo.
The next series relates to L6 myotubes. The series can be described thus: dGlc uptake assay in L6 myotubes. The settings on record: 60 μM inhibitor, 23.0 mM glucose (FIG. 11A); EH-40 data not shown. Type of series: cell-based, rat. As to the method:
FIG. 10: Western blot depicting effect of 3-O-propyl-D-xylose (EH-114), and 1,3-O-dimethylxylopyranoside (EH-101) on the total cell content and plasma membrane abundance of GLUT-4 in the absence or presence of insulin. L6 myotubes were maintained for 48 hr at 23 mM Glucose. The cells were than washed and received fresh medium containing the indicated additions and incubated for additional […]. Insulin was added during the last 30 min of incubation before the dGlc uptake assay.
FIG. 11A: Effect of LY-249002, a PI3-kinase inhibitor, on insulin, D-xylose, EH-101 and EH-114-mediated glucose uptake. L6 myotubes were treated as described in the legend to FIG. 10. The glucose concentration in the culture medium was 23.0 mM. The concentration of LY-294002 was 60 μM. At the end of incubation the cells were taken for the standard dGlc uptake assay. Mean±SEM, n=3.
GLUT-1 and GLUT-4 mediate glucose entry into L6 myotubes. It is established that GLUT-4 is translocated effectively and rapidly to the plasma membrane upon insulin treatment. The inventors looked at the effect of 3-O-propyl-D-xylose EH-114) and 1,3-O-dimethylxylopyranoside (EH-101) on the total cell content and plasma membrane abundance of these transporters in the absence or presence of insulin. L6 myotubes were maintained at 5.0 or 23.0 mM glucose for 48 hr and EH-114 and EH-101 were present during the last 24 hr. The cells were then taken for the standard [^3H]-2-deoxy-D-glucose uptake assay and for the biotinylation procedure for determining the amount of GLUT-1 and GLUT-4 in the plasma membrane. High glucose levels decreased the hexose transport rate by ˜50%. Insulin augmented the transport nearly 2-fold in both cases. EH-114 and EH-101 increased the transport rate 2-3-fold in the absence of insulin. Together with insulin the uptake rate was increased nearly 3-fold.
The inventors also tested the hypothesis that the active D-xylose derivatives augment the hexose transport capacity in L6 myotubes by translocating GLUT-4 to the plasma membrane not via the common insulin-regulated pathway. For this experiment, a selective inhibitor of the enzyme PI3-kinase, LY-249002, which is a key enzyme in the cellular transduction mechanism of insulin, was utilized. […] These findings also agree well with the longer onset of action of these derivatives as compared to the rapid action of insulin. Similar results were obtained when LY-249002 was present together with the derivatives throughout the entire incubation period.
(§1) Uptake assay of the tritiated glucose analogue, 2-deoxy-D-glucose, is routinely performed as described in [Sasson, S. and Cerasi, E. (1986) J. Biol. Chem. 261, 16827-16833].

For series [3], the system named is glucose uptake in cultured cells. The experiment in a line: In vitro glucose uptake / hexose transport in cultured cells with xylose derivatives (Table 2). The format is cell-based. As to the method:
Table 2 summarizes in vitro results obtained with some of these newly synthesized xylose derivatives.
as §1
All new compounds are screened and tested first in various insulin-sensitive cell cultures used routinely in the laboratory (skeletal muscle and adipose cell lines). In addition these drugs were tested in non-insulin-sensitive cells such as primary cultures of bovine and porcine vascular endothelial and smooth muscle cells. Active compounds were tested ex-vivo on isolated rat soleus muscles. All cell cultures and tissues were maintained under hyperglycemic condition prior to the addition of the test compounds. Dose-response and time-course experiments determine which of the derivatives are subsequently tested in animal models. For each potent compound the total cell content and plasma membrane abundance of GLUT-1 and GLUT-4 was determined, as described above. The same biotinylation technique was employed to determine the total and plasma membrane content of both transporters in isolated mouse or rat soleus muscles treated with potent compounds.

The subject of series [4] is glucose transporter. The experiment in a line: [3H]dGlc uptake with unlabeled carbohydrates (affinity for the glucose transporter) in C2 myotubes. The format is cell-based, mouse. As to the method: FIG. 6: Lack of affinity of D-xylose for the glucose transporters. C2 myotubes preconditioned with 20 mM glucose were subjected to [^3H]dGlc uptake assay (0.1 mM dGlc) with increasing concentrations of unlabeled dGlc, glucose or xylose. The unlabeled carbohydrates were added to the [^3H]dGlc solution in the uptake assay.
The inventors have also determined the affinity of D-xylose for the glucose transporter. C2 myotubes preconditioned with 20 mM glucose were subjected to [^3H]dGlc uptake assay (0.1 mM dGlc) in the presence of increasing concentrations of unlabeled dGlc, glucose or xylose. The results of these experiments are depicted in FIG. 6. The affinity of D-xylose for the glucose transporter is 2 orders of magnitude lower compared to glucose. The final concentration of dGlc in the assay was 0.1 mM.

In general, half-life refers to the time needed for the level to fall by half in the phase considered. The low end stands for rapid decline, the high end for slow decline. The EC50 is the concentration that produces a half-maximal response. High values mean lower potency in that assay, low ones higher potency in that assay. With `O=C[C@H](O)[C@@H](O)[C@H](O)CO` [D-xylose], the “competition for transport at high hexose level” value with glucose transporter [1] was “does not compete for transport via the glucose transporter”. The half-life in series [2] lay in the range of 30 to 60 min. Further, the “effect of PI3-kinase inhibitor LY-249002 on the substance's stimulation of hexose transport” value in the series on L6 myotubes is listed as “failed to affect”. The “Fold Increase of Glucose Uptake” value in series [3] is roughly 2.0 fold. In series [3] (EC = Effective concentration), this molecule had an EC50 of 12 mM and an ECmax of 20 mM. The “time to loss of activity after being removed” value in series [3] (after being washed from cell cultures) fell in the range of 10 to 20 min. Moreover, the “affinity for the glucose transporter compared to glucose” value in the series on glucose transporter [4] (0.1 mM dGlc (FIG. 6)) is 2 orders of magnitude lower. Further, in the series with glucose transporter [4] (0.1 mM dGlc, increasing unlabeled carbohydrate), the “competition with [3H]dGlc” value is recorded as “much weaker competitor”. For the same molecule, the “molar excess necessary to achieve 50% inhibition of transport” value with glucose transporter [4] (over 0.1 mM dGlc) was “at least 100 fold molar excess”.
